Where a name gives a salt, the structure may show the parent alone.
Each compound was assayed against T1, human tryptase (Homo sapiens, UniProt P20231) (assay: Inhibition of human tryptase: cleavage of chromogenic substrate tos-Gly-Pro-Arg-pNA, equilibrium conditions). Conditions: tryptase from human lung tissue; 50 μg of heparin/ml; in the presence of substrate tos-Gly-Pro-Arg-pNA, 405 nm; read-out: Kiapp (apparent dissociation constant).
T1 construct: from tissue; host or cells: human lung tissue
Assay type: biochemical
From the text: The documented pathophysiological effects of mast cell tryptase are brought about directly by the enzymic activity of the protease. Accordingly, they are reduced or blocked by inhibitors which inhibit the enzymatic activity of the tryptase. The equilibrium dissociation constant Ki of the enzyme-inhibitor complex is a suitable measure of the affinity of a reversible inhibitor for the target protease. This Ki value can be determined by measuring the effect of the inhibitor on the tryptase-induced cleavage of a chromogenic peptide-p-nitroanilide substrate.
The dissociation constants of the tryptase-inhibitor complexes are determined under equilibrium conditions in accordance with the general recommendations of Bieth (Bieth JG, Pathophysiological interpretation of kinetic constants of protease inhibitors, Bull. Europ. Physiopath. Resp. 16:183-195, 1980) and the methods of Sommerhoff et al. (Sommerhoff CP et al., A. Kazal-type inhibitor of human mast cell tryptase: Isolation from the medical leech Hirudo medicinalis, characterization, and sequence analysis, Biol. Chem. Hoppe-Seyler 375: 685-694, 1994).
Human tryptase is prepared in a pure state from lung tissue; the specific activity of the isolated protease, determined by means of titration, is normally 85% of the theoretical value. Constant quantities of tryptase are incubated with increasing quantities of the inhibitors in the presence of 50 μg of heparin/ml for stabilizing the protease. After the equilibrium has been established between the reaction partners, the remaining enzyme activity is determined after adding the peptide-p-nitroanilide substrate tos-Gly-Pro-Arg-pNA, the cleavage of which is monitored at 405 nm over a period of 3 min. Alternatively, the residual enzymic activity can also be determined using fluorogenic substrates. The apparent dissociation constants Kiapp (i.e. in the presence of substrate) are subsequently ascertained by nonlinear regression by fitting the enzyme rates to the general equation for reversible inhibitors (Morrison JF, Kinetics of the reversible inhibition of enzyme-catalysed reactions by tight-binding inhibitors, Biochim. Biophys. Acta 185, 269-286, 1969):
V1/V0=131 {Et+lt+Kiapp−[(Et+lt+Kiapp)^2−4Etlt]^½}/2Et
In this equation, V1, and V0 are the rates in the presence and absence of the inhibitor, respectively, and Et and lt are the concentrations of the tryptase and of the inhibitor.
The apparent dissociation constants which were determined for the compounds according to the invention are given in Table A below, in which the numbers of the compounds correspond to the numbers of the compounds in the examples.

T1 sequence (P20231 31-275): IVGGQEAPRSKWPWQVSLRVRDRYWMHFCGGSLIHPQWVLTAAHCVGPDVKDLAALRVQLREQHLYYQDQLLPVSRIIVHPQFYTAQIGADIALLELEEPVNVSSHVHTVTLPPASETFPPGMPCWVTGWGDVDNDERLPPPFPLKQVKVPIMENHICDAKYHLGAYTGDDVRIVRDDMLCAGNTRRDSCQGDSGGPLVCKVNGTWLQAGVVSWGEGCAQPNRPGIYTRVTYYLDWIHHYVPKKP

Ki [nM]	SMILES
3000	NCc1cccc(C(=O)N2CCN(C(=O)c3cccc(C(=O)N4CCN(C(=O)c5cccc(CN)c5)CC4)n3)CC2)c1 [Compound 1, Pyridine-2,6-dicarbobis[4-(3-aminomethylbenzoyl)-1-piperazide]]
30	NCc1cccc(C(=O)NC2CCN(C(=O)c3cccc(C(=O)N4CCC(NC(=O)c5cccc(CN)c5)CC4)n3)CC2)c1 [Compound 11, Pyridine-2,6-dicarbobis[4-(3-aminomethylbenzoylamino)-1-piperidide]]
3000	NCC1CCC(C(=O)NC2CCN(C(=O)c3cccc(C(=O)N4CCC(NC(=O)C5CCC(CN)CC5)CC4)n3)CC2)CC1 (stereo not drawn) [Compound 15, Pyridine-2,6-dicarbobis[4-(4-aminomethylcyclohexyl-carbonylamino)-1-piperidide]]
22000	NCC1CCC(C(=O)N2CCN(C(=O)Nc3ccc(Oc4ccc(NC(=O)N5CCN(C(=O)C6CCC(CN)CC6)CC5)cc4)cc3)CC2)CC1 (stereo not drawn) [Compound 17, bis{4-[4-(4-Aminomethyl)cyclohexanoylpiperazin-1-yl-]-carbonyl}-4,4′-diaminodiphenyl Ether Dihydrochloride]
100	NCc1cccc(C(=O)N2CCN(C(=O)Nc3ccc(Oc4ccc(NC(=O)N5CCN(C(=O)c6cccc(CN)c6)CC5)cc4)cc3)CC2)c1 [Compound 21, Bis{4-[4-(3-Aminomethyl)benzoylpiperazin-1-yl]-carbonyl}-4,4′-diaminodiphenyl Ether Dihydrochloride]
800	NCC1CCC(C(=O)NC2CCN(C(=O)NC3CCC(CC4CCC(NC(=O)N5CCC(NC(=O)C6CCC(CN)CC6)CC5)CC4)CC3)CC2)CC1 (stereo not drawn) [Compound 23, di{4-[4-(4-Aminomethyl)cyclohexanoylamino]piperidin-1-ylcarbamoyl}cyclohexylmethane Dihydrochloride]
200	CC(C)(c1ccc(OCC(=O)NCc2ccc(NC(=N)N)cc2)cc1)c1ccc(OCC(=O)NCc2ccc(NC(=N)N)cc2)cc1 [Compound 31, 2,2-bis-[4-(4-Guanidinylbenzylamino)carbonylmethoxy-phenyl]propane Dihydroacetate]
2000	CC(C)(c1ccc(OCC(=O)NCC(=O)NCCCCN)cc1)c1ccc(OCC(=O)NCC(=O)NCCCCN)cc1 [Compound 34, 2,2-bis-[4-(10-Amino-3,6-diaza-2,5-dioxodecyloxy)-phenyl]propane Dihydrochloride]

SMILES	Ki [nM]
CC(C)(c1ccc(OC(=O)N2CCN(C(=O)NCc3ccc(CN)cc3)CC2)cc1)c1ccc(OC(=O)N2CCN(C(=O)NCc3ccc(CN)cc3)CC2)cc1 [Compound 36, 2,2-bis-(4-[4-(4-Aminomethylbenzylcarbamoyl)-1-piperazinylcarbonyloxy]phenyl)propane Dihydrochloride]	28

Reference: patent US6613769B1, “Tryptase inhibitors” (Max-Planck-Gesellschaft zur Föderung der Wissenschaften. …, priority 1998, dated 2003)
